# From ChEMBL document CHEMBL4308841, “Synthesis, in vitro antiproliferative activity, and kinase inhibitory effects of pyrazole-containing diarylureas and diarylamides” (Eur J Med Chem, 2018)
# Assays:
# NCI-H522 [1] = experiment: Growth inhibition of human NCI-H522 cells assessed as cell growth at 10 uM incubated for 48 hrs by sulforhodamine B assay relative to control; type: functional; settings: NCI-H522, 48 h, read-out: Activity
# NCI-H522 [2] = experiment: Growth inhibition of human NCI-H522 cells incubated for 48 hrs by sulforhodamine B assay; type: functional, cell-based; settings: NCI-H522, 48 h
# HT-29 [3] = experiment: Growth inhibition of human HT-29 cells incubated for 48 hrs by sulforhodamine B assay; type: functional, cell-based; settings: HT-29, 48 h
# M14 = experiment: Growth inhibition of human M14 cells incubated for 48 hrs by sulforhodamine B assay; type: functional, cell-based; settings: M14, 48 h
# SK-MEL-2 = experiment: Growth inhibition of human SK-MEL-2 cells incubated for 48 hrs by sulforhodamine B assay; type: functional, cell-based; settings: SK-MEL-2, 48 h
# OVCAR-3 = experiment: Growth inhibition of human OVCAR3 cells incubated for 48 hrs by sulforhodamine B assay; type: functional, cell-based; settings: OVCAR-3, 48 h
# A498 = experiment: Growth inhibition of human A498 cells incubated for 48 hrs by sulforhodamine B assay; type: functional, cell-based; settings: A498, 48 h
# HL-60(TB) [4] = experiment: Growth inhibition of human HL-60(TB) cells assessed as cell growth at 0.01 uM incubated for 48 hrs by sulforhodamine B assay relative to control; type: functional; settings: HL-60, 48 h, read-out: Activity
# HOP-62 [5] = experiment: Growth inhibition of human HOP62 cells assessed as cell growth at 0.01 uM incubated for 48 hrs by sulforhodamine B assay relative to control; type: functional; settings: HOP-62, 48 h, read-out: Activity
# MDA-MB-435 [6] = experiment: Growth inhibition of human MDA-MB-435 cells assessed as cell growth at 0.01 uM incubated for 48 hrs by sulforhodamine B assay relative to control; type: functional; settings: MDA-MB-435, 48 h, read-out: Activity
# OVCAR-8 = experiment: Growth inhibition of human OVCAR8 cells assessed as cell growth at 0.01 uM incubated for 48 hrs by sulforhodamine B assay relative to control; type: functional; settings: OVCAR-8, 48 h, read-out: Activity
# K562 [7] = experiment: Growth inhibition of human K562 cells assessed as cell growth at 0.1 uM incubated for 48 hrs by sulforhodamine B assay relative to control; type: functional; settings: K562, 48 h, read-out: Activity
# MOLT-4 [8] = experiment: Growth inhibition of human MOLT4 cells assessed as cell growth at 0.1 uM incubated for 48 hrs by sulforhodamine B assay relative to control; type: functional; settings: MOLT-4, 48 h, read-out: Activity
# SR = experiment: Growth inhibition of human SR cells assessed as cell growth at 0.1 uM incubated for 48 hrs by sulforhodamine B assay relative to control; type: functional; settings: read-out: Activity
# HCC 2998 [9] = experiment: Growth inhibition of human HCC2998 cells assessed as cell growth at 0.1 uM incubated for 48 hrs by sulforhodamine B assay relative to control; type: functional; settings: HCC 2998, 48 h, read-out: Activity
# HCT-15 = experiment: Growth inhibition of human HCT15 cells assessed as cell growth at 0.1 uM incubated for 48 hrs by sulforhodamine B assay relative to control; type: functional; settings: HCT-15, 48 h, read-out: Activity
# SF-295 = experiment: Growth inhibition of human SF295 cells assessed as cell growth at 0.1 uM incubated for 48 hrs by sulforhodamine B assay relative to control; type: functional; settings: SF-295, 48 h, read-out: Activity
# MDA-MB-468 [10] = experiment: Growth inhibition of human MDA-MB-468 cells assessed as cell growth at 0.1 uM incubated for 48 hrs by sulforhodamine B assay relative to control; type: functional; settings: MDA-MB-468, 48 h, read-out: Activity
# K562 [11] = experiment: Growth inhibition of human K562 cells assessed as cell growth at 1 uM incubated for 48 hrs by sulforhodamine B assay relative to control; type: functional; settings: K562, 48 h, read-out: Activity
# HOP-62 [12] = experiment: Growth inhibition of human HOP62 cells assessed as cell growth at 1 uM incubated for 48 hrs by sulforhodamine B assay relative to control; type: functional; settings: HOP-62, 48 h, read-out: Activity
# KM12 = experiment: Growth inhibition of human KM12 cells assessed as cell growth at 1 uM incubated for 48 hrs by sulforhodamine B assay relative to control; type: functional; settings: KM12, 48 h, read-out: Activity
# UO-31 = experiment: Growth inhibition of human UO31 cells assessed as cell growth at 1 uM incubated for 48 hrs by sulforhodamine B assay relative to control; type: functional; settings: UO-31, 48 h, read-out: Activity
# DU-145 = experiment: Growth inhibition of human DU145 cells assessed as cell growth at 1 uM incubated for 48 hrs by sulforhodamine B assay relative to control; type: functional; settings: DU-145, 48 h, read-out: Activity
# HL-60(TB) [13] = experiment: Growth inhibition of human HL-60(TB) cells assessed as cell growth at 100 uM incubated for 48 hrs by sulforhodamine B assay relative to control; type: functional; settings: HL-60, 48 h, read-out: Activity
# K562 [14] = experiment: Growth inhibition of human K562 cells assessed as cell growth at 100 uM incubated for 48 hrs by sulforhodamine B assay relative to control; type: functional; settings: K562, 48 h, read-out: Activity
# MOLT-4 [15] = experiment: Growth inhibition of human MOLT4 cells assessed as cell growth at 100 uM incubated for 48 hrs by sulforhodamine B assay relative to control; type: functional; settings: MOLT-4, 48 h, read-out: Activity
# HCC 2998 [16] = experiment: Growth inhibition of human HCC2998 cells assessed as cell growth at 100 uM incubated for 48 hrs by sulforhodamine B assay relative to control; type: functional; settings: HCC 2998, 48 h, read-out: Activity
# HT-29 [17] = experiment: Growth inhibition of human HT-29 cells assessed as cell growth at 100 uM incubated for 48 hrs by sulforhodamine B assay relative to control; type: functional; settings: HT-29, 48 h, read-out: Activity
# MDA-MB-435 [18] = experiment: Growth inhibition of human MDA-MB-435 cells assessed as cell growth at 100 uM incubated for 48 hrs by sulforhodamine B assay relative to control; type: functional; settings: MDA-MB-435, 48 h, read-out: Activity
# MDA-MB-468 [19] = experiment: Growth inhibition of human MDA-MB-468 cells assessed as cell growth at 100 uM incubated for 48 hrs by sulforhodamine B assay relative to control; type: functional; settings: MDA-MB-468, 48 h, read-out: Activity
# [20] = read-out: LC50 (the source's name)
# [21] = read-out: pLC50 (the source's name) (converted)
smiles,measurement,setting,value
COc1cc(Cl)cc(-c2nn(-c3cccc(NC(=O)Nc4cccc(C(F)(F)F)c4)c3)cc2-c2ccncc2)c1,growth at 10 µM,NCI-H522 [1],-18.6%
same,GI50,NCI-H522 [2]; read-out: GI50,0.445 µM
same,CC50,NCI-H522 [2]; [20],10 µM
same,TGI,NCI-H522 [2]; read-out: TGI,25.1 µM
same,CC50,NCI-H522 [2]; [21],10.2 µM
same,GI50,HT-29 [3]; read-out: GI50,1.51 µM
same,CC50,HT-29 [3]; [20],25.1 µM
same,TGI,HT-29 [3]; read-out: TGI,52.4 µM
same,GI50,HT-29 [3]; read-out: pGI50 (converted),1.51 µM
same,CC50,HT-29 [3]; [21],26.3 µM
same,TGI,HT-29 [3]; read-out: pTGI (converted),6.31 µM
same,GI50,M14; read-out: GI50,1.34 µM
same,CC50,M14; [20],15.3 µM
same,TGI,M14; read-out: TGI,30.5 µM
same,GI50,M14; read-out: pGI50 (converted),1.35 µM
same,CC50,M14; [21],16.2 µM
same,TGI,M14; read-out: pTGI (converted),3.98 µM
same,GI50,SK-MEL-2; read-out: GI50,1.29 µM
same,CC50,SK-MEL-2; [20],73.4 µM
same,TGI,SK-MEL-2; read-out: TGI,30.5 µM
same,GI50,SK-MEL-2; read-out: pGI50 (converted),1.29 µM
same,CC50,SK-MEL-2; [21],7.41 µM
same,TGI,SK-MEL-2; read-out: pTGI (converted),3.09 µM
same,IC50,OVCAR-3,0.59 µM
same,GI50,OVCAR-3; read-out: GI50,0.502 µM
same,CC50,OVCAR-3; [20],> 100 µM
same,TGI,OVCAR-3; read-out: TGI,45.7 µM
same,GI50,OVCAR-3; read-out: pGI50 (converted),0.589 µM
same,CC50,OVCAR-3; [21],> 100 µM
same,TGI,OVCAR-3; read-out: pTGI (converted),4.57 µM
same,GI50,A498; read-out: GI50,2.25 µM
same,CC50,A498; [20],> 100 µM
same,TGI,A498; read-out: TGI,25.5 µM
same,GI50,A498; read-out: pGI50 (converted),2.24 µM
same,CC50,A498; [21],> 100 µM
same,TGI,A498; read-out: pTGI (converted),25.7 µM
same,growth at 0.01 µM,HL-60(TB) [4],96%
same,growth at 0.01 µM,HOP-62 [5],96%
same,growth at 0.01 µM,MDA-MB-435 [6],100%
same,growth at 0.01 µM,OVCAR-8,97%
same,growth at 0.1 µM,K562 [7],94%
same,growth at 0.1 µM,MOLT-4 [8],55%
same,growth at 0.1 µM,SR,93%
same,growth at 0.1 µM,HCC 2998 [9],98%
same,growth at 0.1 µM,HCT-15,83%
same,growth at 0.1 µM,SF-295,57%
same,growth at 0.1 µM,MDA-MB-468 [10],92%
same,growth at 1 µM,K562 [11],45%
same,growth at 1 µM,HOP-62 [12],85%
same,growth at 1 µM,KM12,38%
same,growth at 1 µM,UO-31,51%
same,growth at 1 µM,DU-145,73%
same,growth at 100 µM,HL-60(TB) [13],-28%
same,growth at 100 µM,K562 [14],-22%
same,growth at 100 µM,MOLT-4 [15],-36%
same,growth at 100 µM,HCC 2998 [16],-83%
same,growth at 100 µM,HT-29 [17],-97%
same,growth at 100 µM,MDA-MB-435 [18],-74%
same,growth at 100 µM,MDA-MB-468 [19],-34%
